# Test results published in patent US20220227781A1, “PYRIMIDINE DERIVATIVE INHIBITING GROWTH OF CANCER CELL AND MEDICINAL USE THEREOF” (ONCOBIX CO., LTD., priority 2019, published 2022).
# Target: EXON 20 Insertion (NPG) Ba/F3 Cell (Homo sapiens, UniProt P00533, INS772GNP, cells depend on it)
# Assay: Measurement of inhibitory effect on cancer cell growth (MTT assay)
# Conditions: read-out: Measured value of inhibitory effect on cancer cell growth (IC50), EXON 20 Insertion (NPG) Ba/F3 Cell, Ba/F3 cells expressing EGFR with NPG inserted at D770_N771, 72 hours treatment, read at 595 nm
# Method: First, the present invention used a vector in which NPG of 3 amino acids were added to D770_N771 site of the most frequent alterations, and used the Ba/F3 cell line for expression of these genes.
# Pre-constructed stable cells of 1×10^4 cells were placed in a 96 well plate and incubated overnight, and then the compounds of Examples were treated at a dose dependent manner After 72 hours, MTT reagent was added, and after 3 hours, stop buffer (10% SDS) was added.
# Sequence of EXON 20 Insertion (NPG) Ba/F3 Cell (P00533 with tags, fused parts or gaps INS772GNP): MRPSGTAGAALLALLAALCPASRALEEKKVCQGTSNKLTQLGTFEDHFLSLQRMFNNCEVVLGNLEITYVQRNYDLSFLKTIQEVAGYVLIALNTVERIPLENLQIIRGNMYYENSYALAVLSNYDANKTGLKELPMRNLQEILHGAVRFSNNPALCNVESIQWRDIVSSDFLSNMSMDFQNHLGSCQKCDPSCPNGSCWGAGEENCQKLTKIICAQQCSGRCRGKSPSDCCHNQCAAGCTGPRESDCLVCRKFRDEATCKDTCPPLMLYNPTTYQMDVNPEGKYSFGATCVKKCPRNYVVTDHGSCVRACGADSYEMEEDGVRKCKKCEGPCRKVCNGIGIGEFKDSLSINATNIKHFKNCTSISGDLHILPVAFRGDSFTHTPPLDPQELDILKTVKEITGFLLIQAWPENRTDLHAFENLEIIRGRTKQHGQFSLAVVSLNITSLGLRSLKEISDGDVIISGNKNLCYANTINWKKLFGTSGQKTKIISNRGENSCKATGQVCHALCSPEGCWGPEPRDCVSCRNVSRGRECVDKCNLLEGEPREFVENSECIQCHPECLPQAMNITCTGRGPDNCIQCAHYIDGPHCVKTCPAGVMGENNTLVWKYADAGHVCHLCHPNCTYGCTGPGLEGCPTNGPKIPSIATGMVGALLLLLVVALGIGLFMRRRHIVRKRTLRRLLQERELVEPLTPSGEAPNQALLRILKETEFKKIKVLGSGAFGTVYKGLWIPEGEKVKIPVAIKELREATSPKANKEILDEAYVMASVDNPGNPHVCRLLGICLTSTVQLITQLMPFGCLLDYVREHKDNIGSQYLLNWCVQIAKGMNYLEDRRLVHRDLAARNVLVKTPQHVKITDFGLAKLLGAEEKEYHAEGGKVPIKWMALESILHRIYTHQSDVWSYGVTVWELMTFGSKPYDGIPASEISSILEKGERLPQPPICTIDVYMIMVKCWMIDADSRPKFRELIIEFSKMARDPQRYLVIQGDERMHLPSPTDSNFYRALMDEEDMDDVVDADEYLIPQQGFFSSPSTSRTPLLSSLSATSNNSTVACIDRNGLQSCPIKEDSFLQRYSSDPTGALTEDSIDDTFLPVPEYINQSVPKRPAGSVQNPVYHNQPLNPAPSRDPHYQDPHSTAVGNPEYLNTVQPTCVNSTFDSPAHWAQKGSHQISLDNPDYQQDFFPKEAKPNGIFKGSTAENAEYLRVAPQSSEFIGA
row,Compound,GI50 [nM]
1,"C=CC(=O)Nc1cc(Nc2ncc(Cl)c(Nc3cc(F)ccc3NS(C)(=O)=O)n2)c(OC)cc1N(C)CCN(C)C [Example 14, N-(5-((5-chloro-4-((5-fluoro-2-(methylsulfonamido)phenyl)amino)pyrimidin-2-yl)amino)-2-((2-(dimethylamino)ethyl)(methyl)amino)-4-methoxyphenyl)acrylamide]",< 100
2,"C=CC(=O)Nc1cc(Nc2cc(Nc3ccccc3N(C)S(C)(=O)=O)ncn2)c(OC)cc1N(C)CCN(C)C [Example 17, N-(2-((2-(dimethylamino)ethyl)(methyl)amino)-4-methoxy-5-((6-((2-(N-methylmethylsulfon amido)phenyl)amino)pyrimidin-4-yl)amino)phenyl)acrylamide]",< 100
3,"C=CC(=O)Nc1cc(Nc2ncc(Cl)c(Nc3cc(F)ccc3N(C)S(C)(=O)=O)n2)c(OC)cc1N(C)CCN(C)C [Example 13, N-(5-((5-chloro-4-((5-fluoro-2-(N-methylmethylsulfonamido)phenyl)amino)pyrimidin-2-yl)amino)-2-((2-(dimethylamino)ethyl)(methyl)amino)-4-methoxyphenyl)acrylamide]",< 100
4,"COc1cc(N2CCC(N3CCN(C)CC3)CC2)c(NC(C)C)cc1Nc1nc(Nc2ccccc2N(C)S(C)(=O)=O)c2sccc2n1 [Example 4, N-(2-((2-((5-(isopropylamino)-2-methoxy-4-(4-(4-methylpiperazin-1-yl)piperidin-1-yl)phenyl)amino)thieno[3,2-d]pyrimidin-4-yl)amino)phenyl)-N-methylmethanesulfonamide]",300 to 1000
5,"C=CC(=O)Nc1cc(Nc2nc(Nc3ccccc3N(C)S(C)(=O)=O)c3sccc3n2)c(OC)cc1N(C)CCN(C)C [Example 8, N-(2-((2-(dimethylamino)ethyl)(methyl)amino)-4-methoxy-5-((4-((2-(N-methylmethylsulfon amido)phenyl)amino)thieno[3,2-d]pyrimidin-2-yl)amino)phenyl)acrylamide]",100 to 300
6,"C=CC(=O)Nc1cc(Nc2ncc(C(=O)OC3CC3)c(Nc3ccccc3N(C)S(C)(=O)=O)n2)c(OC)cc1N(C)CCN(C)C [Example 16, CYCLOPROPYL 2-((5-acrylamido-4-((2-(dimethylamino)ethyl)(methyl)amino)-2-methoxyphenyl)amino)-4-((2-(N-methylmethylsulfonamido)phenyl)amino)pyrimidine-5-carboxylate]",< 100
7,"C=CC(=O)Nc1cc(Nc2ncc(Cl)c(Nc3ccc4nccnc4c3NS(C)(=O)=O)n2)c(OC)cc1N(C)CCN(C)C [Example 12, N-(5-((5-chloro-4-((5-(methylsulfonamido)quinoxalin-6-yl)amino)pyrimidin-2-yl)amino)-2-((2-(dimethylamino)ethyl)(methyl)amino)-4-methoxyphenyl)acrylamide]",< 100
8,"COc1cc(N2CCC(N3CCN(C)CC3)CC2)c(NC(C)C)cc1Nc1ncc(Cl)c(Nc2ccccc2N(C)S(C)(=O)=O)n1 [Example 5, N-(2-((5-chloro-2-((5-(isopropylamino)-2-methoxy-4-(4-(4-methylpiperazin-1-yl)piperidin-1-yl)phenyl)amino)pyrimidin-4-yl)amino)phenyl)-N-methylmethanesulfonamide]",300 to 1000
9,"C=CC(=O)Nc1cc(Nc2ncc(Cl)c(Nc3ccccc3NS(C)(=O)=O)n2)c(OC)cc1N(C)CCN(C)C [Example 10, N-(5-((5-chloro-4-((2-(methylsulfonamido)phenyl)amino)pyrimidin-2-yl)amino)-2-((2-(dimethylamino)ethyl)(methyl)amino)-4-methoxyphenyl)acrylamide]",< 100
10,"COc1cc(N(C)CCN(C)C)c(NC(C)C)cc1Nc1nc(Nc2ccccc2N(C)S(C)(=O)=O)c2sccc2n1 [Example 2, N-(2-((2-((4-((2-(dimethylamino)ethyl)(methyl)amino)-5-(isopropylamino)-2-methoxyphenyl)amino)thieno[3,2-d]pyrimidin-4-yl)amino)phenyl)-N-methylmethanesulfonamide]",300 to 1000
11,"C=CC(=O)Nc1cc(Nc2nc(Nc3ccccc3N(C)S(C)(=O)=O)c3sccc3n2)c(OC)cc1N1CCC(N2CCN(C)CC2)CC1 [Example 7, N-(4-methoxy-5-((4-((2-(N-methylmethylsulfonamido)phenyl)amino)thieno[3,2-d]pyrimidin-2-yl)amino)-2-(4-(4-methylpiperazin-1-yl)piperidin-1-yl)phenyl)acrylamide]",100 to 300
12,"COc1cc(N2CCC(N(C)C)CC2)c(NC(C)C)cc1Nc1ncc(Cl)c(Nc2ccccc2N(C)S(C)(=O)=O)n1 [Example 6, N-(2-((5-chloro-2-((4-(4-(dimethylamino)piperidin-1-yl)-5-(isopropylamino)-2-methoxyphenyl)amino)pyrimidin-4-yl)amino)phenyl)-N-methylmethanesulfonamide]",300 to 1000
13,"COc1cc(N2CCC(N(C)C)CC2)c(NC(C)C)cc1Nc1nc(Nc2ccccc2N(C)S(C)(=O)=O)c2sccc2n1 [Example 3, N-(2-((2-((4-(4-(dimethylamino)piperidin-1-yl)-5-(isopropylamino)-2-methoxyphenyl)amino)thieno[3,2-d]pyrimidin-4-yl)amino)phenyl)-N-methylmethanesulfonamide]",300 to 1000
14,"C=CC(=O)Nc1cc(Nc2nc(Nc3ccccc3N(C)S(C)(=O)=O)c3sccc3n2)c(OC)cc1N1CCC(N(C)C)CC1 [Example 9, N-(2-(4-(dimethylamino)piperidin-1-yl)-4-methoxy-5-((4-((2-(N-methylmethylsulfonamido)phenyl)amino)thieno[3,2-d]pyrimidin-2-yl)amino)phenyl)acrylamide]",100 to 300
15,"C=CC(=O)Nc1cc(Nc2ncc(Cl)c(Nc3ccc4nccnc4c3N(C)S(C)(=O)=O)n2)c(OC)cc1N(C)CCN(C)C [Example 11, N-(5-((5-chloro-4-((5-(N-methylmethylsulfonamido)quinoxalin-6-yl)amino)pyrimidin-2-yl)amino)-2-((2-(dimethylamino)ethyl)(methyl)amino)-4-methoxyphenyl)acrylamide]",< 100
16,"C=CC(=O)Nc1cc(Nc2ncc(C(=O)OC(C)C)c(Nc3ccccc3N(C)S(C)(=O)=O)n2)c(OC)cc1N(C)CCN(C)C [Example 15, ISOPROPYL 2-((5-acrylamido-4-((2-(dimethylamino)ethyl)(methyl)amino)-2-methoxyphenyl)amino)-4-((2-(N-methylmethylsulfonamido)phenyl)amino)pyrimidine-5-carboxylate]",< 100
17,"COc1cc(N(C)CCN(C)C)c(NC(C)C)cc1Nc1ncc(Cl)c(Nc2ccccc2N(C)S(C)(=O)=O)n1 [Example 1, N-(2-((5-chloro-2-((4-((2-(dimethylamino)ethyl)(methyl)amino)-5-(isopropylamino)-2-methoxyphenyl)amino)pyrimidin-4-yl)amino)phenyl)-N-methylmethanesulfonamide]",300 to 1000
